Measured values from the NIST ThermoML archive (doi:10.1016/j.fluid.2019.05.003).

Assay: xn = mol fraction of the nth substance listed
Details: 101 kPa, Liquid; for mass density: Vibrating tube method; for viscosity: Falling or rolling sphere viscometry

OCC[n+]1ccccc1.[Br-] [1-(2-hydroxyethyl)pyridinium bromide] + O
Details | mass density [kg/m3] | viscosity [mPa·s]
323.15 K, x1 = 0.022 | 1060.2 | –
323.15 K, x1 = 0.045 | 1119.1 | –
323.15 K, x1 = 0.066 | 1164.1 | –
323.15 K, x1 = 0.085 | 1197.2 | –
323.15 K, x1 = 0.114 | 1238.9 | –
323.15 K, x1 = 0.152 | 1281.4 | –
323.15 K, x1 = 0.195 | 1319 | –
323.15 K, x1 = 0.226 | 1341 | –
323.15 K, x1 = 0.261 | 1361.6 | –
328.15 K, x1 = 0.022 | 1057.8 | 0.692
328.15 K, x1 = 0.045 | 1116.2 | 0.82
328.15 K, x1 = 0.066 | 1161.1 | 1.008
328.15 K, x1 = 0.085 | 1194.2 | 1.215
328.15 K, x1 = 0.114 | 1235.9 | 1.578
328.15 K, x1 = 0.152 | 1278.3 | 2.149
328.15 K, x1 = 0.195 | 1315.9 | 3.137
328.15 K, x1 = 0.226 | 1337.8 | 4.03
328.15 K, x1 = 0.261 | 1358.4 | 5.207
333.15 K, x1 = 0.022 | 1055.5 | 0.645
333.15 K, x1 = 0.045 | 1113.1 | 0.766
333.15 K, x1 = 0.066 | 1158.1 | 0.933
333.15 K, x1 = 0.085 | 1191.2 | 1.126
333.15 K, x1 = 0.114 | 1232.8 | 1.451
333.15 K, x1 = 0.152 | 1275.2 | 1.969
333.15 K, x1 = 0.195 | 1312.7 | 2.833
333.15 K, x1 = 0.226 | 1334.6 | 3.615
333.15 K, x1 = 0.261 | 1355.2 | 4.632
338.15 K, x1 = 0.022 | 1053.3 | 0.608
338.15 K, x1 = 0.045 | 1111 | 0.716
338.15 K, x1 = 0.066 | 1155.7 | 0.869
338.15 K, x1 = 0.085 | 1187.8 | 1.045
338.15 K, x1 = 0.114 | 1229.7 | 1.344
338.15 K, x1 = 0.152 | 1272 | 1.809
338.15 K, x1 = 0.195 | 1309.5 | 2.599
338.15 K, x1 = 0.226 | 1331.4 | 3.284
338.15 K, x1 = 0.261 | 1352 | 4.101
343.15 K, x1 = 0.022 | 1051 | 0.571
343.15 K, x1 = 0.045 | 1108.4 | 0.674
343.15 K, x1 = 0.066 | 1153 | 0.816
343.15 K, x1 = 0.085 | 1184.6 | 0.976
343.15 K, x1 = 0.114 | 1226.5 | 1.257
343.15 K, x1 = 0.152 | 1268.8 | 1.696
343.15 K, x1 = 0.195 | 1306.3 | 2.37
343.15 K, x1 = 0.226 | 1328.2 | 2.945
343.15 K, x1 = 0.261 | 1348.7 | 3.732
348.15 K, x1 = 0.022 | 1048.8 | 0.538
348.15 K, x1 = 0.045 | 1105.8 | 0.634
348.15 K, x1 = 0.066 | 1150.3 | 0.763
348.15 K, x1 = 0.085 | 1181.8 | 0.911
348.15 K, x1 = 0.114 | 1223.1 | 1.197
348.15 K, x1 = 0.152 | 1265.5 | 1.605
348.15 K, x1 = 0.195 | 1303 | 2.228
348.15 K, x1 = 0.226 | 1324.9 | 2.693
348.15 K, x1 = 0.261 | 1345.5 | 3.372
